Biological target: T1, LXRβ (Homo sapiens, UniProt P55055)
T1 construct: Co-transfection expression plasmids, comprising full-length LXRα (pCMX-h LXRα or LXRβ (pCMX-hLXRβ)); expressed in transfected cells; host or cells: CV-1 African green monkey kidney cells, transient transfection with pCMX-hLXRβ
T1 sequence (P55055 1-460): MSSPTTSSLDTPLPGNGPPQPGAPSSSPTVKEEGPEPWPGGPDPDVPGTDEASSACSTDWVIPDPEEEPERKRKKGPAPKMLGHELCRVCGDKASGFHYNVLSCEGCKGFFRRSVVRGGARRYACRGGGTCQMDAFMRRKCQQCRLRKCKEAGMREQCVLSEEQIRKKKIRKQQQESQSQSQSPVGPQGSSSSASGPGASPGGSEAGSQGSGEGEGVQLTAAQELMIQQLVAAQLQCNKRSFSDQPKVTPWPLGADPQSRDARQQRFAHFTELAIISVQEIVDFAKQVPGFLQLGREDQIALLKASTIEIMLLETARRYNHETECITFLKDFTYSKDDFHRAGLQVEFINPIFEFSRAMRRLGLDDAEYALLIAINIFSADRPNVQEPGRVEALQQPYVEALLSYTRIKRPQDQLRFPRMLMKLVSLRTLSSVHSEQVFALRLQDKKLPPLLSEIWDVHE
T1 sequence (P19793 1-462 partner): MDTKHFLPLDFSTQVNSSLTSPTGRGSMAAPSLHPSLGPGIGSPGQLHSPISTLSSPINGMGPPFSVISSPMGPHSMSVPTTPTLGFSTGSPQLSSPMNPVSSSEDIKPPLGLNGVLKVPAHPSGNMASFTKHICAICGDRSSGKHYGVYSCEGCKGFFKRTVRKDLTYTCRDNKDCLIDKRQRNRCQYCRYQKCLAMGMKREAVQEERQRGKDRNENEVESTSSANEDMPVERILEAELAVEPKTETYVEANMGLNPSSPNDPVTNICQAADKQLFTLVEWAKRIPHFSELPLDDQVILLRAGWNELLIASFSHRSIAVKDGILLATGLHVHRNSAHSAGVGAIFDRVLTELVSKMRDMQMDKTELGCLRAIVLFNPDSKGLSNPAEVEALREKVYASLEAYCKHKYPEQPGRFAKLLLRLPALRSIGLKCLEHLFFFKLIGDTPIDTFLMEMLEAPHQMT
Experiment: LXR/LXRE co-transfection assay (luciferase reporter) in CV-1 cells, LXRβ
Format: cell-based
Details: for EC50: CV-1 cells transfected with pCMX-hLXRβ and LXREx1-Tk-Luciferase, 20 hours incubation, read-out: LXRbeta agonism EC50; for Emax: CV-1 cells, relative to maximum response of high control N-(3-((4-fluorophenyl)-(naphthalene-2-sulfonyl)amino)propyl)-2,2-dimethylpropionamide, read-out: LXRbeta % EFFICACY
Method in brief: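 CV-1 cells transiently co-transfected with full-length human LXRβ, LXRE-Tk-luciferase reporter and β-galactosidase control, then exposed to compound (≤0.5% DMSO) for 20 h at 37 °C before luminescence read. EC50 from 10-point, half-log dose curves; efficacy relative to the sulfonamide high control, means of 2–3 experiments.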

Row | EC50 [nM] | Emax [%] | SMILES
1 | 51 | 62 | Cc1nc(-c2ccc(OC(F)(F)F)cc2)c(-c2cc(-c3cccc(S(C)(=O)=O)c3)ccc2-n2cc(C)c(C(F)(F)F)n2)o1 [Example 440]
2 | 58 | 34 | Cc1nc(-c2ccc3c(c2)OC(F)(F)O3)c(-c2cc(-c3cc(F)c(CO)c(S(C)(=O)=O)c3)ccc2-c2cc(C(F)(F)C(=O)NCC(F)(F)F)nn2C)o1 [Example 90, 2-(5-(3-(4-(2,2-difluorobenzo[d][1,3]dioxol-5-yl)-2-methyloxazol-5-yl)-3′-fluoro-4′-(hydroxymethyl)-5′-(methylsulfonyl)biphenyl-4-yl)-1-methyl-1H-pyrazol-3-yl)-2,2-difluoro-N-(2,2,2-trifluoroethyl)acetamide]
3 | 179 | 88 | Cc1nc(-c2ccc(OC(F)(F)F)cc2)c(-c2cc(-c3cc(Cl)c(CO)c(S(C)(=O)=O)c3)ccc2-c2cc(C(F)(F)F)nn2C)o1 [Example 125, (3-chloro-4′-(1-methyl-3-(trifluoromethyl)-1H-pyrazol-5-yl)-3′-(2-methyl-4-(4-(trifluoromethoxy)phenyl)oxazol-5-yl)-5-(methylsulfonyl)-[1,1′-biphenyl]-4-yl)methanol]
4 | 257 | 33 | Cc1nc(-c2ccc3c(c2)OC(F)(F)O3)c(-c2cc(-c3cc(F)c(CO)c(S(C)(=O)=O)c3)ccc2-c2cc(C(=O)NCC(F)(F)F)nn2C)o1 [Example 112, 5-(3-(4-(2,2-difluorobenzo[d][1,3]dioxol-5-yl)-2-methyloxazol-5-yl)-3′-fluoro-4′-(hydroxymethyl)-5′-(methylsulfonyl)-[1,1′-biphenyl]-4-yl)-1-methyl-N-(2,2,2-trifluoroethyl)-1H-pyrazole-3-carboxamide]
5 | 178 | 77 | Cc1nc(-c2ccc(Cl)cc2Cl)c(-c2cc(-c3cccc(S(C)(=O)=O)c3)ccc2-n2ccc(C(F)(F)F)n2)o1 [Example 337, 4-(2,4-dichlorophenyl)-2-methyl-5-(3′-(methylsulfonyl)-4-(3-(trifluoromethyl)-1H-pyrazol-1-yl)biphenyl-3-yl)oxazole]
6 | 13 | 60 | Cc1nc(-c2ccc(Cl)cc2Cl)c(-c2cc(-c3cc(F)c(CO)c(S(C)(=O)=O)c3)ccc2-n2cc(Cl)c(C(F)(F)F)n2)o1 [Example 424, (4′-(4-chloro-3-(trifluoromethyl)-1H-pyrazol-1-yl)-3′-(4-(2,4-dichlorophenyl)-2-methyloxazol-5-yl)-3-fluoro-5-(methylsulfonyl)-[1,1′-biphenyl]-4-yl)methanol]
7 | 35 | 92 | Cc1nc(-c2ccc3c(c2)OC(F)(F)O3)c(-c2cc(-c3cc(F)c(CO)c(S(C)(=O)=O)c3)ccc2-n2nc(C(F)(F)F)cc2Cl)o1 [Example 347, (4′-(5-chloro-3-(trifluoromethyl)-1H-pyrazol-1-yl)-3′-(4-(2,2-difluorobenzo[d] [1,3]dioxol-5-yl)-2-methyloxazol-5-yl)-3-fluoro-5-(methylsulfonyl)biphenyl-4-yl)methanol]
8 | 135 | 45 | CNC(=O)C(F)(F)c1cc(-c2ccc(-c3cc(F)c(CO)c(S(C)(=O)=O)c3)cc2-c2nc(C)oc2-c2ccc3c(c2)OC(F)(F)O3)n(C)n1 [Example 91, 2-(5-(3-(5-(2,2-difluorobenzo[d][1,3]dioxol-5-yl)-2-methyloxazol-4-yl)-3′-fluoro-4′-(hydroxymethyl)-5′-(methylsulfonyl)biphenyl-4-yl)-1-methyl-1H-pyrazol-3-yl)-2,2-difluoro-N-methylacetamide]
9 | 74 | 81 | Cn1nc(C(F)(F)F)cc1-c1ccc(-c2cccc(C(C)(C)C(N)=O)c2)cc1-n1nncc1-c1ccc(OC(F)(F)F)cc1 [Example 12]
10 | 119 | 33 | Cc1nc(-c2ccc(OC(F)(F)F)cc2)c(-c2cc(-c3cccc(S(C)(=O)=O)c3)ccc2-n2ccc(C(=O)NCC(F)(F)F)n2)o1 [Example 371, 1-(3-(2-methyl-4-(4-(trifluoromethoxy)phenyl)oxazol-5-yl)-3′-(methylsulfonyl)-[1,1′-biphenyl]-4-yl)-N-(2,2,2-trifluoroethyl)-1H-pyrazole-3-carboxamide]
11 | 950 | 18 | Cc1nc(-c2ccc3c(c2)OC(F)(F)O3)c(-c2cc(-c3cccc(C(C)(C)C(N)=O)c3)ccc2-n2ccc(C(N)=O)n2)o1 [Example 364, 1-(3′-(1-amino-2-methyl-1-oxopropan-2-yl)-3-(4-(2,2-difluorobenzo[d][1,3]dioxol-5-yl)-2-methyloxazol-5-yl)-[1,1′-biphenyl]-4-yl)-1H-pyrazole-3-carboxamide]
12 | 70 | 48 | Cc1nc(-c2ccc(OC(F)(F)F)cc2)c(-c2cc(-c3cc(F)c(CO)c(S(C)(=O)=O)c3)ccc2-n2ccc(C3CC3)n2)o1 [Example 315, (4′-(3-cyclopropyl-1H-pyrazol-1-yl)-3-fluoro-3′-(2-methyl-4-(4-(trifluoromethoxy)phenyl)oxazol-5-yl)-5-(methylsulfonyl)-[1,1′-biphenyl]-4-yl)methanol]
13 | 14 | 76 | Cc1nc(-c2cc(F)c(OC(F)F)c(F)c2)c(-c2cc(-c3cc(F)c(CO)c(S(C)(=O)=O)c3)ccc2-n2ccc(C(F)(F)F)n2)o1 [Example 352, (3′-(4-(4-(difluoromethoxy)-3,5-difluorophenyl)-2-methyloxazol-5-yl)-3-fluoro-5-(methylsulfonyl)-4′-(3-(trifluoromethyl)-1H-pyrazol-1-yl)biphenyl-4-yl)methanol]
14 | 159 | 44 | Cc1nc(-c2ccc(OC(F)(F)F)cc2)c(-c2cc(-c3cccc(S(C)(=O)=O)c3)ccc2-c2cc(C(F)(F)C(N)=O)nn2C)o1 [Example 128]
15 | 1580 | 82 | Cn1nc(C(F)(F)C(N)=O)cc1-c1ccc(-c2cccc(S(C)(=O)=O)c2)cc1-n1nncc1-c1ccc(OC(F)(F)F)cc1 [Example 4, 2,2-difluoro-2-(1-methyl-5-(3′-(methylsulfonyl)-3-(5-(4-(trifluoromethoxy)phenyl)-1H-1,2,3-triazol-1-yl)biphenyl-4-yl)-1H-pyrazol-3-yl)acetamide]
16 | 66 | 91 | Cc1nc(-c2ccc3c(c2)OC(F)(F)O3)c(-c2cc(-c3cccc(S(C)(=O)=O)c3)ccc2-n2ccc(C(F)(F)F)n2)o1 [Example 350, 4-(2,2-difluorobenzo[d][1,3]dioxol-5-yl)-2-methyl-5-(3′-(methylsulfonyl)-4-(3-(trifluoromethyl)-1H-pyrazol-1-yl)biphenyl-3-yl)oxazole]
17 | 18 | 94 | Cc1nc(-c2ccc3c(c2)OC(F)(F)O3)c(-c2cc(-c3cc(F)c(CO)c(S(C)(=O)=O)c3)ccc2-c2cc(CC#N)nn2C)o1 [Example 58, 2-(5-(3-(4-(2,2-difluorobenzo[d][1,3]dioxol-5-yl)-2-methyloxazol-5-yl)-3′-fluoro-4′-(hydroxymethyl)-5′-(methylsulfonyl)-[1,1′-biphenyl]-4-yl)-1-methyl-1H-pyrazol-3-yl)acetonitrile]
18 | 134 | 33 | Cc1nc(-c2ccc3c(c2)OC(F)(F)O3)c(-c2cc(-c3cc(F)c(CO)c(S(C)(=O)=O)c3)ccc2-c2cc(C(F)(F)C(=O)NCC3CC3)nn2C)o1 [Example 87, N-(cyclopropylmethyl)-2-(5-(3-(4-(2,2-difluorobenzo[d][1,3]dioxol-5-yl)-2-methyloxazol-5-yl)-3′-fluoro-4′-(hydroxymethyl)-5′-(methylsulfonyl)biphenyl-4-yl)-1-methyl-1H-pyrazol-3-yl)-2,2-difluoroacetamide]
19 | 123 | 38 | Cc1nc(-c2ccc(OC(F)(F)F)cc2)c(-c2cc(-c3cc(F)c(CO)c(S(C)(=O)=O)c3)ccc2-n2ccc(C(=O)NCC(F)(F)F)n2)o1 [Example 372]
20 | 6 | 61 | Cc1nc(-c2ccc(OC(F)F)cc2)c(-c2cc(-c3cc(F)c(CO)c(S(C)(=O)=O)c3)ccc2-n2ccc(C(F)(F)F)n2)o1 [Example 436, (3′-(4-(4-(difluoromethoxy)phenyl)-2-methyloxazol-5-yl)-3-fluoro-5-(methylsulfonyl)-4′-(3-(trifluoromethyl)-1H-pyrazol-1-yl)-[1,1′-biphenyl]-4-yl)methanol]
